Measured values published in publication PMC9500072, “Topical application of an irreversible small molecule inhibitor of lysyl oxidases ameliorates skin scarring and fibrosis” (Nature Communications, 2022).
Values joined by “and” are separate entries in the source; they are usually repeats but may differ in a detail not shown here. Equal values may be shown once. Read-outs that look alike come from different tables or passages of the source.

Key:
DAO = biological target: T1, DAO (Homo sapiens, UniProt P19801); test: Amine oxidase inhibition profile, DAO; type: biochemical
T1 sequence (P19801 20-751): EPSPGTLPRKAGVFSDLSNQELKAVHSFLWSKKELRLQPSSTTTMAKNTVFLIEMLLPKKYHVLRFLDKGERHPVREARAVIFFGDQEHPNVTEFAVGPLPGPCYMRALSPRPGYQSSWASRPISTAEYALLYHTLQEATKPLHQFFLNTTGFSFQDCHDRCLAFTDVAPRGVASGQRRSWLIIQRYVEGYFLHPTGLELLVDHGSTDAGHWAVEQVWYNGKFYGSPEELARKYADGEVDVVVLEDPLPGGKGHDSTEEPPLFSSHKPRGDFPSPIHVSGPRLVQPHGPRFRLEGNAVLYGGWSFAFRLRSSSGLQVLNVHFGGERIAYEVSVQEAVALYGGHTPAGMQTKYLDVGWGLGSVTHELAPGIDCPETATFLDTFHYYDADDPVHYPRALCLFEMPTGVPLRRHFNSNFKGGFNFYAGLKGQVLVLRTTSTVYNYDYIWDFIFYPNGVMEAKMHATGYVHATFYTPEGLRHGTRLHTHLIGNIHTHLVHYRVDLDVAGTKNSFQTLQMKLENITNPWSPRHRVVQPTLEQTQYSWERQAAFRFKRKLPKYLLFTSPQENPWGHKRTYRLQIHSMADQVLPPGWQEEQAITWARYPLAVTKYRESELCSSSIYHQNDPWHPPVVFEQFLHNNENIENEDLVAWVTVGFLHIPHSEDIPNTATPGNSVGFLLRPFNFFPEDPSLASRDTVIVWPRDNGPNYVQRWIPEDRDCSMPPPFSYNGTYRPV
Description: Supplem entary Materi als:
Supplementary Table S1: Amine oxidase inhibition profile of PXS -4787, PXS-6302 and
Supplementary Table S2: Perm eability profile of PXS -6302.

[1] = test system: full-thickness excision injury scar; test: Porcine excision injury model; type: in vivo, pigs
[2] = Systemic exposure in rat at 1000 mg/kg/day; type: in vivo; conditions: daily for 1 week
Adrenergic β2 = Adrenergic β2 (Homo sapiens, UniProt P07550); test: Eurofins panel 204110; type: binding
Androgen (Testosterone) = test: Eurofins panel 206000; type: binding, human
Endothelin ETA = Endothelin ETA (Homo sapiens, UniProt P25101); test: Eurofins panel 224010; type: binding
Histamine H1 = Histamine H1 (Homo sapiens, UniProt P35367); test: Eurofins panel 239610; type: binding
Histamine H2 = Histamine H2 (Homo sapiens, UniProt P25021); test: Eurofins panel 239710; type: binding
Opiate δ1 (OP1, DOP) = Opiate δ1 (OP1, DOP) (Homo sapiens, UniProt P41143); test: Eurofins panel 260130; type: binding
Opiate κ(OP2, KOP) = Opiate κ(OP2, KOP) (Homo sapiens, UniProt P41145); test: Eurofins panel 260210; type: binding
[3] = biological target: Transporter, Serotonin (5- Hydroxytryptamine) (SERT) (Homo sapiens, UniProt P31645); test: Eurofins panel 274030; type: binding
Transporter, Serotonin (5- Hydroxytryptamine) (SERT), sequence (P31645 whole entry): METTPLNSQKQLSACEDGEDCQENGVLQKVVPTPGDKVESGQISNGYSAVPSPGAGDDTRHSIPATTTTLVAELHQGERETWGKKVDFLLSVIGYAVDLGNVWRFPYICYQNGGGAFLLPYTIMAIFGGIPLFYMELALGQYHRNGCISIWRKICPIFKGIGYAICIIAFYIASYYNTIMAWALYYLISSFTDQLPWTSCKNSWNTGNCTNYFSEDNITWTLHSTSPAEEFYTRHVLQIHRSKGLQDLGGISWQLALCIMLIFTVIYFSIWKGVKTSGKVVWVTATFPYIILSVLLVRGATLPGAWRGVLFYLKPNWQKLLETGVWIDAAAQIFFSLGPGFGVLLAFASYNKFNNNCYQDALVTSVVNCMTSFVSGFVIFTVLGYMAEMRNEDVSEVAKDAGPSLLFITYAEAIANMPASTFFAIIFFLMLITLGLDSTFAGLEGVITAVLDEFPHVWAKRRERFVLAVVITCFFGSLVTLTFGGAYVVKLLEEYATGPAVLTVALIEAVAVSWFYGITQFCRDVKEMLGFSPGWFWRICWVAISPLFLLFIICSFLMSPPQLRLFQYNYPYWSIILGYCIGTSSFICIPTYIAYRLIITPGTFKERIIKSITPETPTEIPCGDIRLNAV

Adrenergic β2, sequence (P07550 whole entry): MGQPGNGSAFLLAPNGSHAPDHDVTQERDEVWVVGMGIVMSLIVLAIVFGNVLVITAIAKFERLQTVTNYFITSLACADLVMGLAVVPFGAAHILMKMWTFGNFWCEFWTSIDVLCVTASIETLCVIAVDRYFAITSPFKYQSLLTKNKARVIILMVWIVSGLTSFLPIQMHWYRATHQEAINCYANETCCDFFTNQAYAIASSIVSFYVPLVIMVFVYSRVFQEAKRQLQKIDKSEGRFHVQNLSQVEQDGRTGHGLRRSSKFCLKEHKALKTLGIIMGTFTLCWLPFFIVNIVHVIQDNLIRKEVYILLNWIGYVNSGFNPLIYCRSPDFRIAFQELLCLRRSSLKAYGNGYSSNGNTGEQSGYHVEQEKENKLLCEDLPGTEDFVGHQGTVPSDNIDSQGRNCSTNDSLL
Histamine H2, sequence (P25021 whole entry): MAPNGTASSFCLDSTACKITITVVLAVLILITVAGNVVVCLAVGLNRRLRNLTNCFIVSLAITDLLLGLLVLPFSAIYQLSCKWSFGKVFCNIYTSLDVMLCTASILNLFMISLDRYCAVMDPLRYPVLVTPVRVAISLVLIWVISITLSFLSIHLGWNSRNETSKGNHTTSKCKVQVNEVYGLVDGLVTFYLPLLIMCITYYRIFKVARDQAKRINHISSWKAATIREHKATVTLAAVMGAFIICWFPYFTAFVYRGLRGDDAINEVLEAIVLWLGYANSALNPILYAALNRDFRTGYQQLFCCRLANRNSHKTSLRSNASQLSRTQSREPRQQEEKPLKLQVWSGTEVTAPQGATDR
Opiate δ1 (OP1, DOP), sequence (P41143 whole entry): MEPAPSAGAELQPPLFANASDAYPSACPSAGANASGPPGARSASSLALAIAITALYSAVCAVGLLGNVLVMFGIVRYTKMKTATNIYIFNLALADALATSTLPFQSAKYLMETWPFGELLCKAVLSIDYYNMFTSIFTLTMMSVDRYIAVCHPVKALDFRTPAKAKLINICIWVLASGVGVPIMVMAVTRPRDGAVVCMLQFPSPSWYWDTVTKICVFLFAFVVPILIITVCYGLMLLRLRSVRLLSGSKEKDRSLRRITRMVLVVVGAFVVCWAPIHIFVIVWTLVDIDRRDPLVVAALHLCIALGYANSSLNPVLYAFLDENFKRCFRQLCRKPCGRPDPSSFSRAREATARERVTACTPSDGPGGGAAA
Endothelin ETA, sequence (P25101 21-427): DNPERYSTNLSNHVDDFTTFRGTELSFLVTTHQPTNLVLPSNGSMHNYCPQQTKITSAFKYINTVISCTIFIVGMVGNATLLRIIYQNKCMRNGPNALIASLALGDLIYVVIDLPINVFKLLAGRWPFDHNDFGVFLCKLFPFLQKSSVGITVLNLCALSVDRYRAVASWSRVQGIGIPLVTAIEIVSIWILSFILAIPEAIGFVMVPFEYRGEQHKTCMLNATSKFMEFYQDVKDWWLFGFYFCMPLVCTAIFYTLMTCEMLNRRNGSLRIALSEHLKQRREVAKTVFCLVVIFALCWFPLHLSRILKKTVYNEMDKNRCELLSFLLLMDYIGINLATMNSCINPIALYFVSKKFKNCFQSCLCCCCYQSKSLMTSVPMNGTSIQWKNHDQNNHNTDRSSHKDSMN
Opiate κ(OP2, KOP), sequence (P41145 whole entry): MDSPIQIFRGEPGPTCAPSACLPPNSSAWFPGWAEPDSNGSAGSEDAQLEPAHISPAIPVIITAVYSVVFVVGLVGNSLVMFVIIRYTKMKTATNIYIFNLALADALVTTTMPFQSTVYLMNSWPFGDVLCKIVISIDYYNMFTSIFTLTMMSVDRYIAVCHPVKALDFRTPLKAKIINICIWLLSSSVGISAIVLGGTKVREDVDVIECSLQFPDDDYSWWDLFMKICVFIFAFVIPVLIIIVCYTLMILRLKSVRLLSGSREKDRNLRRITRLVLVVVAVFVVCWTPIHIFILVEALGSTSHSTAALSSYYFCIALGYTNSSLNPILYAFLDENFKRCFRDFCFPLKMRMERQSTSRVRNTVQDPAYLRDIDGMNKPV
Histamine H1, sequence (P35367 whole entry): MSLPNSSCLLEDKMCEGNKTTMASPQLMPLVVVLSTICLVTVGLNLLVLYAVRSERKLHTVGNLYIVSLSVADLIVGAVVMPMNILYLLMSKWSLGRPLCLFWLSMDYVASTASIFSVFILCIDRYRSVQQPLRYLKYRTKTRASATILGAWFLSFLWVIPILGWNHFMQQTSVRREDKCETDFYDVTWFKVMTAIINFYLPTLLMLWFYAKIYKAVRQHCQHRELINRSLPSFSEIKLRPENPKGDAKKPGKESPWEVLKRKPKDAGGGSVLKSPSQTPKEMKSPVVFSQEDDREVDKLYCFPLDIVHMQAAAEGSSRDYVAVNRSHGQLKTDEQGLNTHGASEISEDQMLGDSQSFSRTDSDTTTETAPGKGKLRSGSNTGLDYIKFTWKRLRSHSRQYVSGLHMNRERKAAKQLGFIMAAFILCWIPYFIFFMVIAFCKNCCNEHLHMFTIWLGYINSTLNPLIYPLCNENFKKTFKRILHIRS

N#CCCN [BAPN, β-aminoproprionitrile, reference compound]
Recombinant DAO pIC50 (DAO): < 4.5 | IC50 (DAO; read-out: Recombinant DAO IC50): > 30 µM

NC/C=C(\F)CS(=O)(=O)c1ccccc1 [PXS-4787]
IC50 (DAO; read-out: Recombinant DAO IC50): > 100 µM | Surgeon score dose response ([1]; 0.5 %): 16 and 20 and 14 | Surgeon score dose response ([1]; 3%): 11 and 10 and 12 and 9 | Lox enzyme activity in scars ([1]; 3% cream, 24 hours after final application): significantly inhibited | scar appearance rank (0 best to 3 worst) by blinded plastic surgeons ([1]; 3% cream, treatment commenced at 3 weeks post-injury, analysed at 12 weeks): significant improvements in scar appearance | LOX activity S/N ([1]; PXS-4787, individual samples): 2.7 and 1.5 and 1.8 and 1.4 and 1.3 | systemic levels [2]: negligible | inhibition at 10 µM (Adrenergic β2; 10 µM): 10% | % Inh. (Androgen (Testosterone); 10 µM): 2% | inhibition at 10 µM (Endothelin ETA; 10 µM): 4% | inhibition at 10 µM (Histamine H1; 10 µM): 14% | inhibition at 10 µM (Histamine H2; 10 µM): -4% | inhibition at 10 µM (Opiate δ1 (OP1, DOP); 10 µM): 5% | inhibition at 10 µM (Opiate κ(OP2, KOP); 10 µM): 3% | inhibition at 10 µM ([3]; 10 µM): 8%

NC/C=C(\F)C(F)(F)S(=O)(=O)c1ccccc1 [PXS-6302]
IC50 (DAO): > 30 µM | Excision injury scar scores (average score of all surgeons for each wound/tx group) ([1]; 3%): 9 and 6.667 and 6 and 5.667 and 5 and 6.333 and 9.667 and 9.333 | scar score 1–10 by blinded plastic surgeons ([1]; 3% cream once daily, 12 weeks): significantly higher scores | LOX activity in scar tissue ([1]; 24 h after the final dose, once daily cream): significantly reduced | S/N ration LOX activity (Fig. 8A) ([1]; porcine scar 24 h after final daily application, individual samples): 1.073 and 0.9572 and 1.114 and 1.845 and 1.506 | systemic levels [2]: negligible | inhibition at 30 µM (Adrenergic β2; read-out: % Inh.): 17% | % Inh. (Androgen (Testosterone); 30 µM): -14% | inhibition at 30 µM (Endothelin ETA; read-out: % Inh.): 7% | inhibition at 30 µM (Histamine H1; read-out: % Inh.): 10% | inhibition at 30 µM (Histamine H2; read-out: % Inh.): 5% | inhibition at 30 µM (Opiate δ1 (OP1, DOP); read-out: % Inh.): 26% | inhibition at 30 µM (Opiate κ(OP2, KOP); read-out: % Inh.): 10% | inhibition at 30 µM ([3]; read-out: % Inh.): 20%
